In US20240327456A1, “CANCER THERAPEUTICS” (UNIVERSITAT DE BARCELONA, priority 2021, published 2024):
In brackets after ≈: the same amount, converted by molar mass. Entries after “also recorded” stand apart in the source; their conditions may differ. Read-outs that look alike come from different tables or passages of the source. One block for each compound: values may come before it. Numbered stars: 1 amine (or outer) side, 2 acyl side, 3 side chain; on linkers, the order of the positions; unused ones are H or OH. Square brackets hold non-standard residues; d marks the D form. Peptide text beside a SMILES is read from it. * marks the point of attachment. Diphenylacetyl = O=C(C(c1ccccc1)c1ccccc1)*; Phe(4-Me) = Cc1ccc(C[CH](N)C(=O)O)cc1; NMeβAla = CN(CCC(=O)[*:2])[*:1]; Cha = N[CH](CC1CCCCC1)C(=O)O; Chg = N[CH](C(=O)O)C1CCCCC1; X1 = C1CCC2(CC1)CCN(*)CC2; Dab = NCC[CH](N)C(=O)O; Bz = O=C(c1ccccc1)*

Tests used:
[1] = PAMPA assay; assay type: in vitro ADME; settings: for Pe / Retention %: mean±SD
Description: As part of our analysis, we evaluated IP-14-01, IP-14-03 and IP-14-08 and their biophysical properties by studying them using a solution of 5% DMSO in water. We conducted a permeability through biological barriers (PAMPA assay) and their internalization in SH-SY5Y cells.
(§1) The methods used are well known and would be known to one of skill in the art. As a control, we evaluated the solubility in water which contained 5% DMSO to identify any possible issue related with a low solubility. Data are expressed as the mean±SD.

[2] = tested on: Ras signaling pathway (Raf/ERK and PI3K/AKT); assay: Western blot of RAS signaling pathways in EGF-stimulated serum starved hTERT-RPE cells; assay type: cell-based, human; settings: 50 μM, 0.5% DMSO, 2 h before EGF 50 ng/mL 10 min
Experimental: (§2) Cells were seeded in a media containing 10% FBS for 24 hours and were serum starved (0.5%) for the next 24 hours. Afterwards, they were incubated with different concentrations of the compounds for 2 hours. A successive treatment for 10 minutes with EGF (50 ng/mL) (Sigma-Aldrich) was performed in order to activate cell signaling.
Proteins were resolved by SDS-PAGE and transferred onto PVDF membranes (Immobilon-P, Millipore). Non-specific binding of the antibodies was assessed by incubating the membranes for 1 hour at room temperature with a buffer composed of 20 mM Tris-HCl pH 7.5, 150 mM NaCl, 0.05% Tween 20 and 5% bovine serum albumin. Protein expression was determined by probing the blots overnight at 4° C. with the specified antibodies:anti-c-RAF (BD Transduction 610151, 1:500); anti-phospho-c-RAF S338 (Cell Signaling 9427, 1:500); anti-PI3Kp110a (Cell Signaling 4249, 1:1000); anti-AKT (Cell Signaling 9272, 1:1000); anti-phospho-AKT S473 (Cell Signaling 4060, 1:1000); anti-phospho-AKT Thr308 (Cell Signaling 4056, 1:1000); anti-p44/42 MAPK (ERK1/2) (Cell Signaling 9102, 1:2000); anti-phospho-p44/42 MAPK(ERK1/2) T202/Y204 (Cell Signaling 4370, 1:2000); anti-GAP120 (Santa Cruz SC-63, 1:200); anti-HA (Sigma-Aldrich H6908, 1:1000); or anti-α-tubulin (Sigma-Aldrich T9026, 1:2000). Next, after washing the membranes they were incubated with the corresponding HRP-coupled secondary antibodies (goat anti-rabbit BioRad 170-6515 or goat anti-mouse BioRad 170-6516, 1:3000) for 60 minutes at room temperature and washed again. Protein detection was performed by enhanced chemiluminescence (EZ-ECL, Biological Industries). Emitted light was captioned and quantified (ChemiDoc, BioRad).
For analysis of RAS signalling, cells were lysed in a buffer containing 67 mM Tris-HCl pH 6.8 and 2% SDS and then the samples were heated at 97° C. for 15 minutes. After this, the protein concentration of the lysates was assayed using the Lowry method. An aliquot of 15 μg of protein per sample was loaded onto the gels.
GAP120 detection was used as control.
To consider a peptidomimetic as a positive hit, it should inhibit the activity of the two protein cascades, and as a consequence the phosphorylation of the RAF (P-RAF), AKT (P-AKT) and ERK (P-ERK) should not be observed.

[3] = tested on: pancreatic adenocarcinoma human cell lines (MPanc-96, HPAF-II, PA-TU-8902, SW1990, PA-TU 8988T, PANC-1); assay type: cell-based; settings: for specificity cancer cells versus normal cells (cell viability): cancer cell lines versus hTERT-RPE, MTS
Experimental: (§3) Cells cultured in 10% FCS were treated with compound (I) in a dose range from 0 to 25 µM and incubated for 24 h, when cell viability was determined by MTS assay. Experiment was repeated 3 times. Differences were assessed using one-way ANOVA and Tukey Multiple Comparisons Test and considered significant when p≤0.05.
(§4) 10,000 cells in 50 μL of 10% FBS-containing medium, were cultured for 24 h and then treated with the drugs (50 μL final volume) for a further 24 h in each well of a 96-well plate (100 μL final volume). MTS viability assay (CellTiter 96® Aqueous One Solution Cell Proliferation Assay, Promega G3580) was performed following the manufacturer's specifications. The absorbance of each well was measured with a multimode plate reader (Spark, Tecan) at 490 nm. The percentage of cell viability was calculated by dividing the absorbance of each well by the average absorbance of the control wells (which had no significant deviation when Student's t-test was applied).
(§5) We next incubated IPR-473 at several concentrations with different cancer cell lines and a normal cell line (-hTERT-RPE cells). Cell viability was measured by a MTS cell proliferation assay. […] Cells were placed in a 96-well plate culture containing 10% FBS (Bilogical Industries)-containing medium. (10000 cell per well). These cells were then cultured for 24 hours and then treated with IPR-473 at concentrations of 10 μM, 15 μM, 20 μM and 25 μM for a further 24 hours incubation.
The different cell lines used included human pancreatic cancer cells MPANC-96, human pancreatic adenocarcinoma cells HPAF-II, human pancreatic grade II adenocarcinoma PA-TU, human pancreatic ductaladenocarcinoma SW1990, human pancreas adenocarcinoma 8988-T and human pancreatic ductal carcinoma PANC-1. Each of these comprises a pancreatic tumor cell line. The control as stated was hTERT-RPE cells and that are not cancerigenous.

[4] = Solubility in water at 5% DMSO; assay type: physicochemical
Description: as §1

[5] = Solubility in PBS with 15% β-cyclodextrin; assay type: physicochemical; settings: 1 mM, 24 hours agitation, supernatant by HPLC; mean±SD
Experimental: xxxxx Furthermore, an additional effort was done to reevaluate those peptidomimetics from the first generation that were not soluble in the in vitro assay conditions or formed aggregates as described above when incubated with the RPE cells.
We then put these peptidomimetics under constant agitation for 24 hours. […] Data are expressed as the mean±SD.

[6] = tested on: hTERT-RPE cells; assay type: cell-based, human; settings: at the concentrations of the tumor cell IC50 (approximately 20 μM), 24 h, MTS
Experimental: as §3, §4
as §5, with “These cells were then cultured for 24 hours and then treated with IPR-473 at concentrations of 10 μM, 15 μM, 20 μM and 25 μM for a further 24 hours incubation.” left out

[7] = target: T1, HA-KRASG12V with C-RAF or with PI3K (Homo sapiens, UniProt P01116, G12V); assay: Co-immunoprecipitation of HA-KRASG12V with C-RAF or PI3K in Hela cells; assay type: cell-based; settings: 100 µM for 2 h, EGF 10 min, starved Hela cells expressing HA-KRASG12V
T1 construct: expressed in transfected cells; host or cells: HeLa cells, Lipofectamine 2000, plasmid pEF-HA-KRASG12V
Experimental: Immunoprecipitation was performed with anti-HA antibodies and Western blot of the bound (BO) and input (IN) fractions with anti-p110αPI3K and anti-C-RAF. Experiments were repeated at least three times.
as §2, with “h” for “hours”, “starved” for “starved (0.5%)”, “h.” for “hours.”, “min” for “minutes”, “ng/mL; Sigma-Aldrich)” for “ng/mL) (Sigma-Aldrich)”
HeLa cells were transfected with pEF-HA-KRASG12V plasmid, obtained as described in C. Lopez-Alcala et al. (“Identification of essential interacting elements in K-Ras/calmodulin binding and its role in K-Ras localization.”; J. Biol. Chem. 2008; April 18; 283(16):10621-31. doi: 10.1074/jbc.M706238200. Epub 2008 Jan. 8. PMID: 18182391). Lipofectamine®2000 Transfection Reagent (Invitrogen) was used as a transfection method following the manufacturer's instructions.
Cells were transfected with pEF-HA-KRASG12V plasmid for 24 h and starved for the next 24 h before treatment with the peptides and EGF. Next, an IP with anti-HA antibody crosslinked to agarose beads was performed. […]

Structure (SMILES): NCCCCC(NC(=O)C(Cc1ccccc1)NC(=O)C(CC1CCCC1)NC(=O)c1c2ccccc2cc2ccccc12)C(=O)N1CCCC1 (stereo not shown) [IP-14-02]
- Inhibition of RAS-effectors protein cascades (P-RAF, P-AKT, P-ERK) by Western blot [2]: able to inhibit the RAF and AKT but not ERK

Structure (SMILES): CC(C)CC(NC(=O)COc1ccc(C(C)(C)C)cc1)C(=O)NC(Cc1cccc2ccccc12)C(=O)NC(CCCCN)C(=O)N1CCCCC1 (stereo not shown) [IP-14-05]
- Conc. in PBS β-cyclodextrin 15% [5]: 849 ± 43 µM

Structure (SMILES): CC(C)CC(NC(=O)C(Cc1ccccc1)NC(=O)C1CCCN1C(=O)C(CCN)NC(=O)c1ccccc1)C(=O)N1CCC2(CCCCC2)CC1 (stereo not shown) [IP-14-08] (Bz-[Dab]PFL-X1; configuration not given here)
- Transport % [1]: 0%
- Pe [1]: 0 cm/s
- Retention % [1]: 97.6 ± 5.0%
- Inhibition of RAS-effectors protein cascades (P-RAF, P-AKT, P-ERK) by Western blot [2]: able to inhibit the two RAS-effectors protein cascades
- Solubility (in words) ([4]; water at 5% DMSO): good solubility
- solubility ([4]; water at 5% DMSO, mean±SD, read-out: Solubility): 1320 ± 22 µM (≈ 942 µg/mL)

Structure (SMILES): Cc1ccc(CC(NC(=O)C(c2ccccc2)c2ccccc2)C(=O)N(C)CCC(=O)NC(CC2CCCCC2)C(=O)NC(C(=O)N2CCCC2C(N)=O)C2CCCCC2)cc1 (stereo not shown) [IPR-471] (Diphenylacetyl-[Phe(4-Me)][NMeβAla][Cha][Chg]P-NH2; configuration not given here)
- Inhibition of RAS-effectors protein cascades (P-RAF, P-AKT, P-ERK) by Western blot [2]: not better than IP-14-01

Structure (SMILES): CC(C)CC(NC(=O)C(CN)N(C)C(=O)CCN(C)C(=O)C(Cc1ccc(-c2ccccc2)cc1)NC(=O)C(c1ccccc1)c1ccccc1)C(=O)N1CCCC1 (stereo not shown) [IPR-473]
- Inhibition of RAS-effectors protein cascades (P-RAF, P-AKT, P-ERK) by Western blot [2]: able to inhibit all the two different protein cascades (RAF/ERK and PI3K/AKT) more effectively than even IP-14-01; also recorded: highest degree of inhibition of the RAS effectors
- specificity cancer cells versus normal cells (cell viability) [3]: high specificity for pancreatic cancer cell lines

Structure (SMILES): CC(O)C(NC(=O)CCN(C)C(=O)C(Cc1ccc(-c2ccccc2)cc1)NC(=O)C(c1ccccc1)c1ccccc1)C(=O)NC(C(=O)N1CCCC1)C1CCCCC1 (stereo not shown) [IPR-474]
- Inhibition of RAS-effectors protein cascades (P-RAF, P-AKT, P-ERK) by Western blot [2]: not better than IP-14-01

Continued, in another order:

- Transport % [1]: 0%
- Pe [1]: 5.6e-10 ± 3.1e-10 cm/s
- Retention % [1]: 55.7 ± 7.1%
- Solubility (in words) [4]: good solubility
- solubility [4]: 1333 ± 13 µM (≈ 974 µg/mL)
Structure (SMILES): CC(NC(=O)C(CN)NC(=O)CCN(C)C(=O)C(Cc1ccc(-c2ccccc2)cc1)NC(=O)C(c1ccccc1)c1ccccc1)C(=O)N1CCCC1 (stereo not shown) [IP-14-01]
- Inhibition of RAS-effectors protein cascades (P-RAF, P-AKT, P-ERK) by Western blot [2]: able to inhibit the two RAS-effectors protein cascades; also recorded: most potent inhibitor
- specificity cancer cells versus normal cells (cell viability) [3]: did not show cell-line specificity

- Transport % [1]: 0%
- Pe [1]: 1.6e-09 ± 3.6e-10 cm/s
- Retention % [1]: 77.9 ± 2.4%
- Solubility (in words) [4]: good solubility
- solubility [4]: 549 ± 90 µM (≈ 400 µg/mL)
Structure (SMILES): CC(NC(=O)C(NC(=O)CCN(C)C(=O)C(CN)NC(=O)C(c1ccccc1)c1ccccc1)C1CCCCC1)C(=O)N1CCC2(CCCCC2)CC1 (stereo not shown) [IP-14-03]
- Inhibition of RAS-effectors protein cascades (P-RAF, P-AKT, P-ERK) by Western blot [2]: able to inhibit the two RAS-effectors protein cascades

- Conc. in PBS β-cyclodextrin 15% [5]: 780 ± 30 µM
Structure (SMILES): CC(C)CC(NC(=O)CCCN(C)C(=O)C(CCCN)NC(=O)C(Cc1cccc2ccccc12)NC(=O)c1c2ccccc2cc2ccccc12)C(=O)N1CCC2(CCCCC2)CC1 (stereo not shown) [IP-14-04]

- Conc. in PBS β-cyclodextrin 15% [5]: 766 ± 19 µM
Structure (SMILES): CCC(C)C(NC(=O)C(c1ccccc1)c1ccccc1)C(=O)NC(CCc1ccccc1)C(=O)NC(CCCCN)C(=O)N1CCC2(CCCCC2)CC1 (stereo not shown) [IP-14-07]

- Conc. in PBS β-cyclodextrin 15% [5]: 949 ± 8 µM
Structure (SMILES): CC(C)CC(NC(=O)COc1ccc(C(C)(C)C)cc1)C(=O)NC(Cc1cccc2ccccc12)C(=O)NC(CN)C(=O)N1CCC2(CCCCC2)CC1 (stereo not shown) [IP-14-09]

- IC50 ([3]; 24 h): ~20 µM
Structure (SMILES): CC(C)C[C@H](NC(=O)[C@H](CN)N(C)C(=O)CCN(C)C(=O)[C@H](Cc1ccc(-c2ccccc2)cc1)NC(=O)C(c1ccccc1)c1ccccc1)C(=O)N1CCCC1 [compound of formula (I), (S)-N-(3-(((S)-3-amino-1-((S)-4-methyl-1-oxo-1-(pyrrolidin-1-yl)pentan-2-ylamino)-1-oxopropan-2-yl)(methyl)amino)-3-oxopropyl)-3-(biphenyl-4-yl)-2-(2,2-diphenylacetamido)-N-methylpropanamide]
- normal cells affected [6]: less than 5%
- PI3K and c-RAF1 interaction with KRAS (co-immunoprecipitation) [7]: reduced PI3K and c-RAF1 interaction with KRAS
